How the values were obtained:
Assay type in all cases: in vivo
POAAN (Poa annua) = assay: Post-emergence (PO) action against weeds, greenhouse trial, test method 2; details: PO application; g of AS/ha: (A) 240, (B) 1200, (C) 140, (A)+(B)+(C) 240 + 1200 + 140
Procedure: (§1) In the standard design of the test, seeds of various broad-leaved weed and weed grass biotypes (origins) were sown in a 8-13 cm diameter pot filled with natural soil of a standard field soil (loamy silt; non-sterile) and covered with a covering soil layer of about 1 cm. The pots were then cultivated in a greenhouse (12-16 h of light, temperature day 20-22° C., night 15-18° C.) until the time of application. The pots were treated on a laboratory track sprayer with spray liquors comprising the compositions according to the invention, mixtures of the prior art or components used individually. Application of the active compounds or active compound combinations formulated as WG, WP, EC or otherwise was carried out at the appropriate growth stages of the plants. The application rate for the spray application was 100-600 l of water/ha. After the treatment, the plants were returned to the greenhouses.
(§2) About 3 weeks after the application, the soil action or/and foliar action was assessed visually according to a scale of 0-100% in comparison to an untreated comparative group: 0%=no noticeable effect compared to the untreated comparative group; 100%=full effect compared to the untreated comparative group.
(§3) (notes: the term “seeds” also includes vegetative propagation forms such as, for example, rhizome pieces; abbreviations used: h light=hours of illumination, g of AS/ha=gram of active substance per hectare, l/ha=liter per hectare, S=sensitive, R=resistant) • 1. Pre-emergence action against weeds: seeds of various broad-leaved weed and weed grass biotypes (origins) were sown in a 8-13 cm diameter pot filled with natural soil of a standard field soil (loamy silt; non-sterile) and covered with a covering soil layer of about 1 cm. The pots were then cultivated in a greenhouse (12-16 h of light, temperature day 20-22° C., night 15-18° C.) until the time of application. The pots were treated at the BBCH stage 00-10 of the seeds/plants on a laboratory track sprayer with spray liquors comprising the compositions according to the invention, mixtures or components used individually, as WG, WP, EC or other formulations. The application rate for the spray application was 100-600 l of water/ha. After the treatment, the plants were returned to the greenhouses and, when required, treated with fertilizer and watered. • 2. Post-emergence action against weeds: seeds of various broad-leaved weed and weed grass biotypes (origins) were sown in a 8-13 cm diameter pot filled with natural soil of a standard field soil (loamy silt; non-sterile) and covered with a covering soil layer of about 1 cm. The pots were then cultivated in a greenhouse (12-16 h of light, temperature day 20-22° C., night 15-18° C.) until the time of application. The pots were treated at various BBCH stages between 11-25 of the seeds/plants, i.e. generally between two to three weeks after the start of the cultivation, on a laboratory track sprayer with spray liquors comprising the compositions according to the invention, mixtures or components used individually, as WG, WP, EC or other formulations. The application rate for the spray application was 100-600 l of water/ha. After the treatment, the plants were returned to the greenhouses and, when required, treated with fertilizer and watered. • 3. […]

VIOAR (Viola arvensis) = assay: as above; details: PO application; g of AS/ha: (A) 240, (B) 1200, (C) 140, (A)+(B)+(C) 240 + 1200 + 140
Procedure: as §1, §2, §3

[1] = tested on: HORVS (Hordeum vulgare, summer barley); assay: Selective post-emergence action (crop compatibility), greenhouse trial, test method 4; details: PO application; g of AS/ha: (A) 240, (B) 1200, (C) 140, (A)+(B)+(C) 240 + 1200 + 140
Procedure: as §1, §2
(notes: the term “seeds” also includes vegetative propagation forms such as, for example, rhizome pieces; abbreviations used: h light=hours of illumination, g of AS/ha=gram of active substance per hectare, l/ha=liter per hectare, S=sensitive, R=resistant) • 1. Pre-emergence action against weeds: seeds of various broad-leaved weed and weed grass biotypes (origins) were sown in a 8-13 cm diameter pot filled with natural soil of a standard field soil (loamy silt; non-sterile) and covered with a covering soil layer of about 1 cm. The pots were then cultivated in a greenhouse (12-16 h of light, temperature day 20-22° C., night 15-18° C.) until the time of application. […]

AVEFA (Avena fatua) [2] = assay: Pre-emergence (PE) action against weeds, greenhouse trial, test method 1; details: PE application; g of AS/ha: (A) 90, (B) 1200, (C) 140, (A)+(B)+(C) 90 + 1200 + 140
Procedure: as §1
as §2, with “group. […]” for “group.”

[3] = tested on: MATCH (Matricaria chamomilla); assay: as above; details: PE application; g of AS/ha: (A) 90, (B) 1200, (C) 140, (A)+(B)+(C) 90 + 1200 + 140
Procedure: as §1
as §2, with “group. […]” for “group.”

[4] = tested on: HORVS (Hordeum vulgare, summer barley); assay: Selective pre-emergence action (crop compatibility), greenhouse trial, test method 3; details: PE application; g of AS/ha: (A) 90, (B) 1200, (C) 140, (A)+(B)+(C) 90 + 1200 + 140
Procedure: as §1
as §2, with “group. […]” for “group.”

AVEFA (Avena fatua) [5] = assay: Pre-sowing application action against weeds (7 days prior to sowing), test method 5; details: application 7 days prior to sowing; g of AS/ha: (A) 90, (B) 1200, (C) 140, (A)+(B)+(C) 90 + 1200 + 140
Procedure: as §1, §2
(§4) (notes: the term “seeds” also includes vegetative propagation forms such as, for example, rhizome pieces; abbreviations used: h light=hours of illumination, g of AS/ha=gram of active substance per hectare, l/ha=liter per hectare, S=sensitive, R=resistant) • 1. Pre-emergence action against weeds: seeds of various broad-leaved weed and weed grass biotypes (origins) were sown in a 8-13 cm diameter pot filled with natural soil of a standard field soil (loamy silt; non-sterile) and covered with a covering soil layer of about 1 cm. The pots were then cultivated in a greenhouse (12-16 h of light, temperature day 20-22° C., night 15-18° C.) until the time of application. The pots were treated at the BBCH stage 00-10 of the seeds/plants on a laboratory track sprayer with spray liquors comprising the compositions according to the invention, mixtures or components used individually, as WG, WP, EC or other formulations. The application rate for the spray application was 100-600 l of water/ha. After the treatment, the plants were returned to the greenhouses and, when required, treated with fertilizer and watered. • 2. Post-emergence action against weeds: seeds of various broad-leaved weed and weed grass biotypes (origins) were sown in a 8-13 cm diameter pot filled with natural soil of a standard field soil (loamy silt; non-sterile) and covered with a covering soil layer of about 1 cm. The pots were then cultivated in a greenhouse (12-16 h of light, temperature day 20-22° C., night 15-18° C.) until the time of application. […]

LOLPE (Lolium perenne) [6] = assay: as above; details: application 7 days prior to sowing; g of AS/ha: (A) 90, (B) 1200, (C) 140, (A)+(B)+(C) 90 + 1200 + 140
Procedure: as §1, §2, §4

[7] = tested on: HORVS (Hordeum vulgare, summer barley); assay: Pre-sowing application (7 days prior to sowing), crop compatibility; details: g of AS/ha: (A) 90, (B) 1200, (C) 140, (A)+(B)+(C) 90 + 1200 + 140
Procedure: as §1
as §2, with “group. […]” for “group.”

LOLPE (Lolium perenne) [8] = assay: PE action under various irrigation conditions, test method 6; details: PE application, g of AS/ha: (A) 90, (B) 1200, (C) 140, (A)+(B)+(C) 90 + 1200 + 140
Procedure: as §1, §2
(§5) (notes: the term “seeds” also includes vegetative propagation forms such as, for example, rhizome pieces; abbreviations used: h light=hours of illumination, g of AS/ha=gram of active substance per hectare, l/ha=liter per hectare, S=sensitive, R=resistant) • 1. Pre-emergence action against weeds: seeds of various broad-leaved weed and weed grass biotypes (origins) were sown in a 8-13 cm diameter pot filled with natural soil of a standard field soil (loamy silt; non-sterile) and covered with a covering soil layer of about 1 cm. The pots were then cultivated in a greenhouse (12-16 h of light, temperature day 20-22° C., night 15-18° C.) until the time of application. The pots were treated at the BBCH stage 00-10 of the seeds/plants on a laboratory track sprayer with spray liquors comprising the compositions according to the invention, mixtures or components used individually, as WG, WP, EC or other formulations. The application rate for the spray application was 100-600 l of water/ha. After the treatment, the plants were returned to the greenhouses and, when required, treated with fertilizer and watered. • 2. Post-emergence action against weeds: seeds of various broad-leaved weed and weed grass biotypes (origins) were sown in a 8-13 cm diameter pot filled with natural soil of a standard field soil (loamy silt; non-sterile) and covered with a covering soil layer of about 1 cm. The pots were then cultivated in a greenhouse (12-16 h of light, temperature day 20-22° C., night 15-18° C.) until the time of application. The pots were treated at various BBCH stages between 11-25 of the seeds/plants, i.e. generally between two to three weeks after the start of the cultivation, on a laboratory track sprayer with spray liquors comprising the compositions according to the invention, mixtures or components used individually, as WG, WP, EC or other formulations. The application rate for the spray application was 100-600 l of water/ha. After the treatment, the plants were returned to the greenhouses and, when required, treated with fertilizer and watered. • 3. Selective pre-emergence action: seeds of various crop species (origins) were sown in a 8-13 cm diameter pot filled with natural soil of a standard field soil (loamy silt; non-sterile) and covered with a covering soil layer of about 1 cm. The pots were then cultivated in a greenhouse (12-16 h of light, temperature day 20-22° C., night 15-18° C.) until the time of application. The pots were treated at the BBCH stage 00-10 of the seeds/plants on a laboratory track sprayer with spray liquors comprising the compositions according to the invention, mixtures or components used individually, as WG, WP, EC or other formulations. The application rate for the spray application was 100-600 l of water/ha. […]

[9] = tested on: MATCH (Matricaria chamomilla); assay: as above; details: PE application
Procedure: as §1, §2, §5

[10] = tested on: MATCH (Matricaria chamomilla); assay: Action under various soil conditions (soil types), test method 7; details: g of AS/ha: (A) 90, (B) 1200, (C) 140, (A)+(B)+(C) 90 + 1200 + 140
Procedure: as §1, §2, §5

## CCC(CC)Nc1c([N+](=O)[O-])cc(C)c(C)c1[N+](=O)[O-] [(B) pendimethalin, N-(1-ethylpropyl)-3,4-dimethyl-2,6-dinitrobenzenamine]
POAAN (Poa annua)
  activity POAAN (visual, scale 0-100%): 0%
VIOAR (Viola arvensis)
  activity VIOAR (visual, scale 0-100%): 30%
[1]
  activity HORVS (crop plant; visual, scale 0-100%): 10%
AVEFA (Avena fatua) [2]
  activity AVEFA: 40%
[3]
  activity MATCH: 18%
[4]
  activity HORVS (crop plant): 50%
AVEFA (Avena fatua) [5]
  activity AVEFA: 70%
LOLPE (Lolium perenne) [6]
  activity LOLPE: 0%
[7]
  activity HORVS (crop plant): 30%
LOLPE (Lolium perenne) [8]; irrigation from above
  activity LOLPE: 75%
LOLPE (Lolium perenne) [8]; irrigation from below
  activity LOLPE: 10%
[9]; irrigation from above, g of AS/ha: (A) 90, (B) 1200, (C) 140, (A)+(B)+(C) 90 + 1200 + 90
  activity MATCH: 30%
[9]; irrigation from below, g of AS/ha: (A) 90, (B) 1200, (C) 140, (A)+(B)+(C) 90 + 1200 + 140
  activity MATCH: 18%
[10]; IU soil
  activity MATCH IU soil: 10%
[10]; IU/EC73 soil
  activity MATCH IU/EC73 soil: 0%

— patent US20110152093A1, “Herbicidal compositions comprising flufenacet” (Bayer CropScience AG, priority 2009, published 2011)
